Measurements taken from patent US6287813A, “Antibiotic-based gene regulation system” (Cistronics Cell Technology GmbH, priority 1999, dated 2001).

Biological target: T1, PIT/PPIR system (Streptomyces coelicolor, UniProt Q9ADN3)
T1 construct: pMF156/pTWIN in CHO cells, PPIR-SEAP or GFP reporter
T1 sequence (Q9ADN3 1-252): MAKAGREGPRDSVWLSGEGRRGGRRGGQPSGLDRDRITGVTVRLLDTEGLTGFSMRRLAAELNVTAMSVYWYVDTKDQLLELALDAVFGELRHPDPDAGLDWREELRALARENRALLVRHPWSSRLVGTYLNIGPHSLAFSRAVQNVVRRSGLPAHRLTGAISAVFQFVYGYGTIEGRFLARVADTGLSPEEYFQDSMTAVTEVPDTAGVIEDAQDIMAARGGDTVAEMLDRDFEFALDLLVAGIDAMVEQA
Experiment: SEAP reporter assay, CHO-K1 cotransfected with pMF156 (PIT) and pMF172 (PPIR-SEAP)
Assay type: cell-based
Description: PIT, the fusion protein of Pip and the VP16 C-terminal transactivation domain of Herpes simplex (Triezenberg et al., 1988, Genes Dev. 2, 718-729) was constructed by amplifying the S. coelicolor Pip from pGemT::Epip4 with oligos:
Chinese hamster ovary cells (CHO-K1, ATCC: CCL 61), Baby hamster kidney cells (BHK-21, ATCC: CRL-8544), and HeLa cells (ATCC: CRL-7923) as well as stable cell lines CHO-PIT1, CHO-PIT2, CHO-TWIN195, CHO-TWIN1108 and CHO-PIT1-SEAP were cultured as described before (Fussenegger et al., 1998, Nat. Biotechnol. 16,468-472) in the presence of appropriate antibiotics: G418 400 μg/ml; zeocin 100 μg/ml. Optimized CaPO4 protocols were used for high efficiency transient transfection of all cell lines (id). Transient transfected cells were routinely analyzed after 48 h for GFP or SEAP expression using fluorescence microscopy and p-nitrophenolphosphate-based light absorbance timecourse, respectively, as described before (Fussenegger et al., 1998, Nat. Biotechnol. 16, 468-472; Berger et al., 1988, Gene 66, 1-10 b). For construction of stable CHO-PIT and CHO-TWIN cell lines, CHO-K1 was cotransfected either with pMF156 or pTWIN1 and pSV2neo carrying the G418 resistance gene. CHO-PIT1-SEAP was constructed by cotransfection of pMF172 and pZeoSV2 (Invitrogen). For assessment of dose-response characteristics of PPIR -regulated gene expression, CHO-PIT1-SEAP were cultured at cell densities of 150,000/ml for 48 at various PI concentrations. The mixed populations were cloned using FACS-mediated single-cell-sorting (FACStar^Plus; Beckton Dickinson). Gel retardation assay were performed as described (Salah-Bey et al., 1995, supra) using Pip purified from an overproducing strain of E. coli. Pip (0.02 pmol) was titrated with a range of antibiotic concentrations in a reaction volume of 20 μl. Protein solutions were pre-incubated at room temperature for 15 min. in the absence or presence of PI or its derivative quinupristin in a buffer containing 10 mM Tris (pH 7.8), 10 mM MgCl2, 300 mM NaCl, 2 mM DTT and 10% glycerol. An EcoRI-HindII PPTR fragment (0.02 pmol) containing three Pip binding sites (radiolabelled using α-^32 P)dATP was added and incubated for 15 min. To minimize nonspecific protein binding and increase protein stability, 2 μg of poly dIdC and 20 μg BSA were included in the incubation mix. Protein-DNA complexes were separated on 5% polyacrylamide,TBE gels and visualized by autoradiography.
Five different sources of pristinamycin were used: The two therapeutic forms Pyostacin™ and Synercid™, pristinamycin discs, and the single compounds pristinamycin I (PI) and pristinamycin II (PII). Pyostacin™ pills (500 mg) were ground in a mortar and solubilized in DMSO or water at a stock concentration of 50 mg/ml. Synercid™ (RP 59500; Lot Nr. CB06253) was provided by Aventis in injection-ready vials containing 500 mg lyophilized antibiotic which was reconstituted in 5 ml of 5% glucose solution and frozen at -20° C. Individual pristinamycin compounds PI and PII (identical to virginiamycin M1 (VM1); Sigma ref. V2753) were solubilized in DMSO at a concentration of 50 mg/ml and kept at -20° C. Antibiotic discs containing 15 μg pristinamycin or virginiamycin (bioMerieux, ref. 54552; bioMerieux, ref. 54612) were soaked in 1 ml cell culture medium at 4i C for up to 24 h. […] The concentration of individual streptogramin components was calculated based on their fixed 70:30 ratio (w/w; PII/VM1 /dalfopristin: PI/VS1 /quinupristin). […]

With pristinamycin I [PI] the “SEAP readout (slope of the p-nitrophenolphosphate-based light absorbance time courses)” value (+PI (2 μg/ml), 48 hr post transfection, CHO + pMF156 + pMF172) was 0.03 ± 0.002, the “Downregulation of PIT/PPIR-mediated SEAP expression” value (CHO-K1, 2 μg/ml) was “effective downregulation” and the “SEAP Production (%)” value (inducer 2 μg/ml, assayed 48 hr later, no inducer = 100) was 7.90 ± 1.2%.
